Data from PubChem BioAssay (NCI).
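Grown in 96-well plates, cells were treated for 48 hours with each compound at five concentrations. Insufficient inhibition: endpoint recorded as highest concentration tested. TGI: concentration producing complete growth inhibition.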

Key:
Test in all cases: NCI anticancer screen, dose series, 48 h
DU-145 prostate = system: DU-145 prostate
HL-60(TB) leukemia = system: HL-60(TB) leukemia
MDA-N = system: MDA-N
SNB-75 CNS = system: SNB-75 CNS
COLO 205 colon = system: COLO 205 colon
IGROV1 ovarian = system: IGROV1 ovarian
NCI-H522 lung = system: NCI-H522 lung
CCRF-CEM leukemia = system: CCRF-CEM leukemia
SK-MEL-5 melanoma = system: SK-MEL-5 melanoma
SR leukemia = system: SR leukemia
ACHN renal = system: ACHN renal
HS 578T breast = system: HS 578T breast
M14 melanoma = system: M14 melanoma
TK-10 renal = system: TK-10 renal
HCC-2998 colon = system: HCC-2998 colon
SF-539 CNS = system: SF-539 CNS
SK-MEL-28 melanoma = system: SK-MEL-28 melanoma
CAKI-1 renal = system: CAKI-1 renal
786-0 renal = system: 786-0 renal
RXF 393 renal = system: RXF 393 renal
NCI-H460 lung = system: NCI-H460 lung
OVCAR-5 ovarian = system: OVCAR-5 ovarian
HCT-116 colon = system: HCT-116 colon
HCT-15 colon = system: HCT-15 colon
MALME-3M melanoma = system: MALME-3M melanoma
OVCAR-4 ovarian = system: OVCAR-4 ovarian
LOX IMVI melanoma = system: LOX IMVI melanoma
EKVX NSCLC = system: EKVX NSCLC
KM12 colon = system: KM12 colon
HOP-92 NSCLC = system: HOP-92 NSCLC
PC-3 prostate = system: PC-3 prostate
U251 CNS = system: U251 CNS
SK-MEL-2 melanoma = system: SK-MEL-2 melanoma
MDA-MB-435 = system: MDA-MB-435
T-47D breast = system: T-47D breast
SW-620 colon = system: SW-620 colon
BT-549 breast = system: BT-549 breast
RPMI-8226 leukemia = system: RPMI-8226 leukemia
MOLT-4 leukemia = system: MOLT-4 leukemia
A498 renal = system: A498 renal
NCI-H226 lung = system: NCI-H226 lung
NCI-H23 lung = system: NCI-H23 lung
K-562 leukemia = system: K-562 leukemia
UACC-257 melanoma = system: UACC-257 melanoma
HT29 colon = system: HT29 colon
MDA-MB-231 breast = system: MDA-MB-231 breast
SNB-19 CNS = system: SNB-19 CNS
NCI/ADR-RES ovarian = system: NCI/ADR-RES ovarian
A549 NSCLC = system: A549 NSCLC
UO-31 renal = system: UO-31 renal
OVCAR-8 ovarian = system: OVCAR-8 ovarian
MCF7 breast = system: MCF7 breast
SN12C renal = system: SN12C renal
UACC-62 melanoma = system: UACC-62 melanoma
SF-268 CNS = system: SF-268 CNS
SF-295 CNS = system: SF-295 CNS
OVCAR-3 ovarian = system: OVCAR-3 ovarian
HOP-62 NSCLC = system: HOP-62 NSCLC
SK-OV-3 ovarian = system: SK-OV-3 ovarian

## COc1cccc(/C=C/C2=NN(c3cccc(S(=O)(=O)O)c3)C3(C2)SCC(=O)N3c2nc3ccccc3s2)c1 (stereo unspecified)
DU-145 prostate
  TGI: 93.1 µM
HL-60(TB) leukemia
  TGI: > 100 µM
MDA-N
  TGI: > 100 µM
SNB-75 CNS
  TGI: > 100 µM
COLO 205 colon
  TGI: > 100 µM
IGROV1 ovarian
  TGI: > 100 µM
NCI-H522 lung
  TGI: 28.4 µM
CCRF-CEM leukemia
  TGI: 88.3 µM
SK-MEL-5 melanoma
  TGI: > 100 µM
SR leukemia
  TGI: 62.9 µM
ACHN renal
  TGI: > 100 µM
HS 578T breast
  TGI: > 100 µM
M14 melanoma
  TGI: > 100 µM
TK-10 renal
  TGI: 81.1 µM
HCC-2998 colon
  TGI: > 100 µM
SF-539 CNS
  TGI: 37.4 µM
SK-MEL-28 melanoma
  TGI: > 100 µM
CAKI-1 renal
  TGI: > 100 µM
786-0 renal
  TGI: 43.1 µM
RXF 393 renal
  TGI: > 100 µM
NCI-H460 lung
  TGI: > 100 µM
OVCAR-5 ovarian
  TGI: > 100 µM
HCT-116 colon
  TGI: > 100 µM
HCT-15 colon
  TGI: > 100 µM
MALME-3M melanoma
  TGI: > 100 µM
OVCAR-4 ovarian
  TGI: > 100 µM
LOX IMVI melanoma
  TGI: 40.5 µM
EKVX NSCLC
  TGI: > 100 µM
KM12 colon
  TGI: > 100 µM
HOP-92 NSCLC
  TGI: > 100 µM
PC-3 prostate
  TGI: > 100 µM
U251 CNS
  TGI: > 100 µM
SK-MEL-2 melanoma
  TGI: > 100 µM
MDA-MB-435
  TGI: 66.6 µM
T-47D breast
  TGI: 52.8 µM
SW-620 colon
  TGI: > 100 µM
BT-549 breast
  TGI: > 100 µM
RPMI-8226 leukemia
  TGI: 52.4 µM
MOLT-4 leukemia
  TGI: 81.3 µM
A498 renal
  TGI: > 100 µM
NCI-H226 lung
  TGI: > 100 µM
NCI-H23 lung
  TGI: > 100 µM
K-562 leukemia
  TGI: > 100 µM
UACC-257 melanoma
  TGI: > 100 µM
HT29 colon
  TGI: > 100 µM
MDA-MB-231 breast
  TGI: > 100 µM
SNB-19 CNS
  TGI: > 100 µM
NCI/ADR-RES ovarian
  TGI: > 100 µM
A549 NSCLC
  TGI: > 100 µM
UO-31 renal
  TGI: > 100 µM
OVCAR-8 ovarian
  TGI: > 100 µM
MCF7 breast
  TGI: > 100 µM
SN12C renal
  TGI: > 100 µM
UACC-62 melanoma
  TGI: > 100 µM
SF-268 CNS
  TGI: > 100 µM

## CC1(C)C2CCC1C(=O)C(C=O)C2 (stereo unspecified)
DU-145 prostate
  TGI: > 100 µM
HL-60(TB) leukemia
  TGI: > 100 µM
MDA-N
  TGI: > 100 µM
SNB-75 CNS
  TGI: > 100 µM
COLO 205 colon
  TGI: > 100 µM
IGROV1 ovarian
  TGI: > 100 µM
NCI-H522 lung
  TGI: > 100 µM
CCRF-CEM leukemia
  TGI: > 100 µM
SK-MEL-5 melanoma
  TGI: > 100 µM
SF-295 CNS
  TGI: > 100 µM
SR leukemia
  TGI: 79.6 µM
ACHN renal
  TGI: > 100 µM
HS 578T breast
  TGI: > 100 µM
M14 melanoma
  TGI: > 100 µM
TK-10 renal
  TGI: > 100 µM
HCC-2998 colon
  TGI: > 100 µM
SF-539 CNS
  TGI: > 100 µM
SK-MEL-28 melanoma
  TGI: > 100 µM
CAKI-1 renal
  TGI: > 100 µM
786-0 renal
  TGI: > 100 µM
RXF 393 renal
  TGI: > 100 µM
NCI-H460 lung
  TGI: > 100 µM
OVCAR-5 ovarian
  TGI: > 100 µM
HCT-116 colon
  TGI: > 100 µM
HCT-15 colon
  TGI: > 100 µM
OVCAR-3 ovarian
  TGI: > 100 µM
MALME-3M melanoma
  TGI: > 100 µM
LOX IMVI melanoma
  TGI: > 100 µM
KM12 colon
  TGI: > 100 µM
PC-3 prostate
  TGI: > 100 µM
U251 CNS
  TGI: > 100 µM
SK-MEL-2 melanoma
  TGI: > 100 µM
MDA-MB-435
  TGI: > 100 µM
T-47D breast
  TGI: > 100 µM
SW-620 colon
  TGI: > 100 µM
BT-549 breast
  TGI: > 100 µM
HOP-62 NSCLC
  TGI: > 100 µM
RPMI-8226 leukemia
  TGI: > 100 µM
MOLT-4 leukemia
  TGI: > 100 µM
A498 renal
  TGI: > 100 µM
NCI-H226 lung
  TGI: > 100 µM
SK-OV-3 ovarian
  TGI: > 100 µM
NCI-H23 lung
  TGI: > 100 µM
K-562 leukemia
  TGI: > 100 µM
UACC-257 melanoma
  TGI: > 100 µM
HT29 colon
  TGI: > 100 µM
MDA-MB-231 breast
  TGI: > 100 µM
SNB-19 CNS
  TGI: > 100 µM
NCI/ADR-RES ovarian
  TGI: > 100 µM
A549 NSCLC
  TGI: > 100 µM
UO-31 renal
  TGI: > 100 µM
OVCAR-8 ovarian
  TGI: > 100 µM
MCF7 breast
  TGI: > 100 µM
SN12C renal
  TGI: > 100 µM
UACC-62 melanoma
  TGI: > 100 µM
SF-268 CNS
  TGI: > 100 µM
